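Each compound was tested at five concentrations against cells in 96-well plates for 48 hours. Here, GI50 denotes the concentration required for 50% inhibition of growth. Definition used: TGI = concentration required for complete inhibition of growth.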
Legend:
Assay in all cases: DTP human tumour cell line panel, 48 h
UACC-257 melanoma = test system: UACC-257 melanoma
SF-268 CNS = test system: SF-268 CNS
SR leukemia = test system: SR leukemia
LOX IMVI melanoma = test system: LOX IMVI melanoma
SW-620 colon = test system: SW-620 colon
IGROV1 ovarian = test system: IGROV1 ovarian
SN12C renal = test system: SN12C renal
KM12 colon = test system: KM12 colon
T-47D breast = test system: T-47D breast
OVCAR-5 ovarian = test system: OVCAR-5 ovarian
MALME-3M melanoma = test system: MALME-3M melanoma
U251 CNS = test system: U251 CNS
MOLT-4 leukemia = test system: MOLT-4 leukemia
HOP-92 NSCLC = test system: HOP-92 NSCLC
HL-60(TB) leukemia = test system: HL-60(TB) leukemia
A549 NSCLC = test system: A549 NSCLC
NCI/ADR-RES ovarian = test system: NCI/ADR-RES ovarian
OVCAR-3 ovarian = test system: OVCAR-3 ovarian
SK-OV-3 ovarian = test system: SK-OV-3 ovarian
NCI-H226 lung = test system: NCI-H226 lung
UACC-62 melanoma = test system: UACC-62 melanoma
SNB-19 CNS = test system: SNB-19 CNS
MCF7 breast = test system: MCF7 breast
TK-10 renal = test system: TK-10 renal
SF-539 CNS = test system: SF-539 CNS
786-0 renal = test system: 786-0 renal
NCI-H23 lung = test system: NCI-H23 lung
HS 578T breast = test system: HS 578T breast
DU-145 prostate = test system: DU-145 prostate
OVCAR-4 ovarian = test system: OVCAR-4 ovarian
ACHN renal = test system: ACHN renal
MDA-MB-435 = test system: MDA-MB-435
UO-31 renal = test system: UO-31 renal
HCT-15 colon = test system: HCT-15 colon
SK-MEL-2 melanoma = test system: SK-MEL-2 melanoma
M14 melanoma = test system: M14 melanoma
A498 renal = test system: A498 renal
HT29 colon = test system: HT29 colon
NCI-H522 lung = test system: NCI-H522 lung
SF-295 CNS = test system: SF-295 CNS
K-562 leukemia = test system: K-562 leukemia
CAKI-1 renal = test system: CAKI-1 renal
SNB-75 CNS = test system: SNB-75 CNS
OVCAR-8 ovarian = test system: OVCAR-8 ovarian
PC-3 prostate = test system: PC-3 prostate
MDA-MB-231 breast = test system: MDA-MB-231 breast
SK-MEL-5 melanoma = test system: SK-MEL-5 melanoma
BT-549 breast = test system: BT-549 breast
COLO 205 colon = test system: COLO 205 colon
HCC-2998 colon = test system: HCC-2998 colon
NCI-H460 lung = test system: NCI-H460 lung
SK-MEL-28 melanoma = test system: SK-MEL-28 melanoma
RXF 393 renal = test system: RXF 393 renal
CCRF-CEM leukemia = test system: CCRF-CEM leukemia
HCT-116 colon = test system: HCT-116 colon
RPMI-8226 leukemia = test system: RPMI-8226 leukemia
HOP-62 NSCLC = test system: HOP-62 NSCLC

O=C(Nc1cccc(-n2cc(-c3ccncc3)c(-c3ccc(Cl)c(O)c3)n2)c1)Nc1cccc(C(F)(F)F)c1
GI50 (UACC-257 melanoma): 4.34 µM
TGI (UACC-257 melanoma): 19.1 µM
GI50 (SF-268 CNS): 1.95 µM
TGI (SF-268 CNS): 15.8 µM
GI50 (SR leukemia): 1.82 µM
TGI (SR leukemia): 20 µM
GI50 (LOX IMVI melanoma): 2.53 µM
TGI (LOX IMVI melanoma): 9.58 µM
GI50 (SW-620 colon): 3.82 µM
TGI (SW-620 colon): > 32.5 µM
GI50 (IGROV1 ovarian): 1.64 µM
TGI (IGROV1 ovarian): > 32.5 µM
GI50 (SN12C renal): 2.01 µM
TGI (SN12C renal): > 32.5 µM
GI50 (KM12 colon): 1.33 µM
TGI (KM12 colon): > 32.5 µM
GI50 (T-47D breast): 2.47 µM
TGI (T-47D breast): > 32.5 µM
GI50 (OVCAR-5 ovarian): 13.7 µM
TGI (OVCAR-5 ovarian): > 32.5 µM
GI50 (MALME-3M melanoma): 1.81 µM
TGI (MALME-3M melanoma): 20.1 µM
GI50 (U251 CNS): 1.59 µM
TGI (U251 CNS): 7.65 µM
GI50 (MOLT-4 leukemia): 1.92 µM
TGI (MOLT-4 leukemia): > 32.5 µM
GI50 (HOP-92 NSCLC): 0.509 µM
TGI (HOP-92 NSCLC): 2.23 µM
GI50 (HL-60(TB) leukemia): 1.45 µM
TGI (HL-60(TB) leukemia): > 32.5 µM
GI50 (A549 NSCLC): 1.37 µM
TGI (A549 NSCLC): > 32.5 µM
GI50 (NCI/ADR-RES ovarian): 2.14 µM
TGI (NCI/ADR-RES ovarian): > 32.5 µM
GI50 (OVCAR-3 ovarian): 1.06 µM
TGI (OVCAR-3 ovarian): 6.13 µM
GI50 (SK-OV-3 ovarian): 4.97 µM
TGI (SK-OV-3 ovarian): > 32.5 µM
GI50 (NCI-H226 lung): 7.35 µM
TGI (NCI-H226 lung): > 32.5 µM
GI50 (UACC-62 melanoma): 1.65 µM
TGI (UACC-62 melanoma): 6.91 µM
GI50 (SNB-19 CNS): 1.91 µM
TGI (SNB-19 CNS): > 32.5 µM
GI50 (MCF7 breast): 1.34 µM
TGI (MCF7 breast): > 32.5 µM
GI50 (TK-10 renal): 2.12 µM
TGI (TK-10 renal): > 32.5 µM
GI50 (SF-539 CNS): 3.54 µM
TGI (SF-539 CNS): 11.6 µM
GI50 (786-0 renal): 4.69 µM
TGI (786-0 renal): > 32.5 µM
GI50 (NCI-H23 lung): 1.9 µM
TGI (NCI-H23 lung): > 32.5 µM
GI50 (HS 578T breast): 3.31 µM
TGI (HS 578T breast): > 32.5 µM
GI50 (DU-145 prostate): 1.76 µM
TGI (DU-145 prostate): > 32.5 µM
GI50 (OVCAR-4 ovarian): 3.18 µM
TGI (OVCAR-4 ovarian): > 32.5 µM
GI50 (ACHN renal): 1.29 µM
TGI (ACHN renal): > 32.5 µM
GI50 (MDA-MB-435): 1.49 µM
TGI (MDA-MB-435): 12.6 µM
GI50 (UO-31 renal): 1.86 µM
TGI (UO-31 renal): > 32.5 µM
GI50 (HCT-15 colon): 1.51 µM
TGI (HCT-15 colon): > 32.5 µM
GI50 (SK-MEL-2 melanoma): 2.02 µM
TGI (SK-MEL-2 melanoma): 10.8 µM
GI50 (M14 melanoma): 1.4 µM
TGI (M14 melanoma): 10.8 µM
GI50 (A498 renal): 2.24 µM
TGI (A498 renal): > 32.5 µM
GI50 (HT29 colon): 9.82 µM
TGI (HT29 colon): > 32.5 µM
GI50 (NCI-H522 lung): 1.46 µM
TGI (NCI-H522 lung): 14.5 µM
GI50 (SF-295 CNS): 0.962 µM
TGI (SF-295 CNS): 4.26 µM
GI50 (K-562 leukemia): 1.44 µM
TGI (K-562 leukemia): > 32.5 µM
GI50 (CAKI-1 renal): 1.75 µM
TGI (CAKI-1 renal): > 32.5 µM
GI50 (SNB-75 CNS): 3.65 µM
TGI (SNB-75 CNS): > 32.5 µM
GI50 (OVCAR-8 ovarian): 1.57 µM
TGI (OVCAR-8 ovarian): > 32.5 µM
GI50 (PC-3 prostate): 0.948 µM
TGI (PC-3 prostate): 22.4 µM
GI50 (MDA-MB-231 breast): 3.59 µM
TGI (MDA-MB-231 breast): 26.8 µM
GI50 (SK-MEL-5 melanoma): 1.3 µM
TGI (SK-MEL-5 melanoma): 4.71 µM
GI50 (BT-549 breast): 6.51 µM
TGI (BT-549 breast): 21.4 µM
GI50 (COLO 205 colon): 7.9 µM
TGI (COLO 205 colon): 23.8 µM
GI50 (HCC-2998 colon): 7.26 µM
TGI (HCC-2998 colon): > 32.5 µM
GI50 (NCI-H460 lung): 1.18 µM
TGI (NCI-H460 lung): 29 µM
GI50 (SK-MEL-28 melanoma): 4.11 µM
TGI (SK-MEL-28 melanoma): > 32.5 µM
GI50 (RXF 393 renal): 3.02 µM
TGI (RXF 393 renal): 12 µM
GI50 (CCRF-CEM leukemia): 1.4 µM
TGI (CCRF-CEM leukemia): > 32.5 µM
GI50 (HCT-116 colon): 1.39 µM
TGI (HCT-116 colon): 8.26 µM
GI50 (RPMI-8226 leukemia): 1.34 µM
TGI (RPMI-8226 leukemia): > 32.5 µM
GI50 (HOP-62 NSCLC): 6.86 µM
TGI (HOP-62 NSCLC): > 32.5 µM

From PubChem BioAssay (NCI)
